Results as given in paper PMC4700268 (Frontiers in Pharmacology, 2016).

Key:
hOAT1 [1] = target: T1, hOAT1 (Homo sapiens, UniProt Q4U2R8); assay: Inhibition of [3H]PAH uptake in hOAT1 transfected HeLa cells; type: in vitro ADME; set-up: host or cells: HeLa cells, transient transfection; conditions: 1 μM [3H]PAH, HeLa cells transiently transfected with hOAT1, 2 min, 37°C; read-out: IC50, inhibition of hOAT1 mediated transport
T1 sequence (Q4U2R8 1-563): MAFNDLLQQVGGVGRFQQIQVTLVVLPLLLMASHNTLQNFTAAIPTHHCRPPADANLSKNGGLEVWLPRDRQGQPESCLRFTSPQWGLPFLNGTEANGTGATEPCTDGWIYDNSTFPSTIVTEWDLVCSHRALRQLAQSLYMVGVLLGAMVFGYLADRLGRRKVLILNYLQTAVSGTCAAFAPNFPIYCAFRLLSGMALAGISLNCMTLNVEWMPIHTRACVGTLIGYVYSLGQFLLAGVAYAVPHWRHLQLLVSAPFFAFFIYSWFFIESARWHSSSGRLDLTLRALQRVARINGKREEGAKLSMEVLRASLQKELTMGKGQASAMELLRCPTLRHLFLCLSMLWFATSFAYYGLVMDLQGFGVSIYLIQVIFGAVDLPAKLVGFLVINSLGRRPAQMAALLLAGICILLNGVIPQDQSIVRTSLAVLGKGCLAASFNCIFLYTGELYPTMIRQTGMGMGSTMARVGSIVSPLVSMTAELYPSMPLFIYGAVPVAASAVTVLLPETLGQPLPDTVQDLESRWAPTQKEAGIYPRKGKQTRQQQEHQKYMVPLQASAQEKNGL
Experimental: (§1) Inhibitory transport assays were carried out in 24-well plates as described previously ([Mandikova et al., 2013]). Transport assays in HeLa cells transiently transfected with the hOAT1 expression construct were performed 48 h after transfection. Transport assays in MDCK II cells transiently transfected with hOCT2, hCNT2 or hCNT3 were performed 24 h after transfection. The cultivation medium was removed and the cells were washed with transport solution and preincubated for 10 min at 37°C. The standard radiolabeled substrate or tested radioactive antiviral substance dissolved in transport solution was added to the cells and incubated for 2 min. […] After the designated time period, the incubation was stopped by washing the cells twice with ice-cold solution containing 137 mM NaCl and 10 mM HEPES, pH 7.4. The cells were disintegrated with 0.1 mL of Triton X 0.5% in 100 mM NaOH for 1 h. […] IC50 values were calculated using non-linear regression analysis using GraphPad Prism software (version 6).

[2] = system: MDCK II cells transiently transfected with hCNT2; assay: MTS cell viability assay in hCNT2 transfected MDCK II cells; type: cell-based, canine; conditions: 24 h, 250–1000 μM, hCNT2 vs empty vector MDCK II cells
Experimental: (§2) The controls were prepared simultaneously.

[3] = ref Matthews, 2006, Yan et al.; cited from earlier work
hOAT1 [4] = target: T1, hOAT1; set-up: host or cells: HeLa cells, transient transfection; method as in Xu et al., 2013; conditions: ref Xu et al., 2013; read-out: Km for hOAT1, previously published; cited from earlier work
hOAT1 [5] = target: T1, hOAT1; assay: Inhibition by ETV of [3H]adefovir, [3H]tenofovir, [3H]cidofovir accumulation in hOAT1 transfected HeLa cells; type: in vitro ADME; set-up: host or cells: HeLa cells, transient transfection; conditions: 2 min
Experimental: as §1

hCNT3 = target: T2, hCNT3 (Homo sapiens, UniProt Q9HAS3); assay: [3H]ETV uptake in hCNT3 transfected cells; conditions: 5 min, 37°C
T2 sequence (Q9HAS3 1-691): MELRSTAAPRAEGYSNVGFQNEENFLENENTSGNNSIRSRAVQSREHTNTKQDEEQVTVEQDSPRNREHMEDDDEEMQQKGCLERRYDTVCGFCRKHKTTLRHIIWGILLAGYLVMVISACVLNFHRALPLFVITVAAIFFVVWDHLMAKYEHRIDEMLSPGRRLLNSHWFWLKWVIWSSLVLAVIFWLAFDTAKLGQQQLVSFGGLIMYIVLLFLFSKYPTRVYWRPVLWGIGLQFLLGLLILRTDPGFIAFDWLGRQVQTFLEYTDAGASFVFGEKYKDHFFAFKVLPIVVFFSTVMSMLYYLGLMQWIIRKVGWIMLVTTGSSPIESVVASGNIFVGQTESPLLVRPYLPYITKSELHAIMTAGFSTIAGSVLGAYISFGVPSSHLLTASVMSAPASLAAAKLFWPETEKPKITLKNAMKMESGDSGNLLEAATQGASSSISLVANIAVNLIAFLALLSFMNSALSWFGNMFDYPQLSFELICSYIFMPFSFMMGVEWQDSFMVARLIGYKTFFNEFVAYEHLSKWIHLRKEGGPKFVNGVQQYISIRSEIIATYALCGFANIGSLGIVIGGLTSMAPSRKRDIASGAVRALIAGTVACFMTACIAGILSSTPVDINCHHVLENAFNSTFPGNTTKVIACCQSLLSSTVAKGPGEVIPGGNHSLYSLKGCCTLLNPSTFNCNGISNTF

[6] = system: HeLa cells transiently transfected with hOAT1
Experimental: The Hela cells were plated in a 96-well plate and transfected with hOAT1 as described above. […] The controls were prepared simultaneously. After 24 h of incubation, the reagent from the kit CellTiter 96 AQueous One Solution Cell Proliferation Assay (CellTiter 96, PROMEGA, USA) was added. After 1.5 h of incubation at 37°C the absorbance was recorded at 490 nm.

[7] = system: MDCK II cells transiently transfected with hCNT3; assay: MTS cell viability assay in hCNT3 transfected MDCK II cells; type: cell-based, canine; conditions: 24 h, 250–1000 μM, hCNT3 vs empty vector MDCK II cells
Experimental: as §2

IC50 (hOAT1 [1]): 175 µM | IC50 (hOAT1 [5]; IC50, inhibition of [3H]cidofovir accumulation by hOAT1, [3H]cidofovir 70 μM): 695 µM | IC50 (hOAT1 [5]; [3H]adefovir 0.1 μM, read-out: IC50, inhibition of [3H]adefovir accumulation by hOAT1): 432 µM | IC50 (hOAT1 [5]; [3H]tenofovir 0.5 μM, read-out: IC50, inhibition of [3H]tenofovir accumulation by hOAT1): 704 µM | Vmax of [3H]ETV uptake by hCNT3 (hCNT3): 45.84 nmol/mg protein/5 min
SMILES: C=C1[C@H](CO)[C@@H](O)C[C@@H]1n1cnc2c(=O)[nH]c(N)nc21 [ETV, Entecavir]
Effect of hCNT2 expression on cytotoxicity [2]: did not prove any significant increase in cytotoxicity | Therapeutic concentrations in plasma following regular doses [3]: below 50 nM | Km (hOAT1 [4]): 250 µM | Effect of hOAT1 expression on cytotoxicity (cell viability) [6]: no significant effect on cell viability | Effect of hCNT3 expression on cytotoxicity [7]: did not prove any significant increase in cytotoxicity
